Data published in US6617350B2, “Inhibitors of aspartyl protease” (priority 1999, dated 2003).
Read-outs that look alike come from different tables or passages of the source.

What was measured:
[1] = molecular target: HIV-1 protease (Human immunodeficiency virus type 1 group M subtype B, UniProt P04585); assay: biochemical
[2] = system: HIV-1 (strain IIIB); assay: microbe, parasite or virus in culture; type: cell-based; conditions: Human immunodeficiency virus 1, IIIB, MT4, Table 12; anti-viral potency in MT-4 cells; read-out: IC50
[3] = Table 12, HIV-1 protease, read-out: Ki

Row | Structure (SMILES) | Ki [1, 3] | IC50 [2] | Ki [1]
1 | COc1ccc(S(=O)(=O)N(CC(O)[C@H](Cc2ccccc2)NC(=O)OC2COC3OCCC23)CC(C)(C)CCOC(N)=O)cc1 (stereo partly drawn) [Compound 235, (3R,3aS,6aR)-Hexahydrofuro[2,3-b]furan-3-yl N-((1S,2R)-1-benzyl-3-(4-carbamoyloxy-2,2-dimethylbutyl)[(4-methoxyphenyl)sulfonyl]amino-2-hydroxypropyl)carbamate] | < 1 nM | ≤ 100 nM | –
2 | COc1ccc(S(=O)(=O)N(CC(O)C(Cc2ccccc2)NC(=O)OC2COC3OCCC23)CC(C)(C)CCNC(=O)N2CCOCC2)cc1 [Compound 236, (3R,3aS,6aR)hexahydrofuro[2,3-b]furan-3-yl N-((1S,2R)-1-benzyl-3-2,2-dimethyl-4-[(morpholinocarbonyl)amino]butyl[(4-methoxyphenyl)sulfonyl]amino-2-hydroxypropyl)carbamate and (3S,3aR,6aS)hexahydrofuro[2,3-b]furan-3-yl N-((1S,2R)-1-benzyl-3-2,2-dimethyl-4-[(morpholinocarbonyl)amino]butyl[(4-methoxyphenyl)sulfonyl]amino-2-hydroxypropyl)carbamate] | < 1 nM | ≤ 100 nM | –
3 | COc1ccc(S(=O)(=O)N(CC(O)C(Cc2ccccc2)NC(=O)OC2COC3OCCC23)CC(C)(C)CCCNC(=O)N2CCOCC2)cc1 [Compound 237, (3R,3aS,6aR)hexahydrofuro[2,3-b]furan-3-yl N-((1S,2R)-1-benzyl-3-2,2-dimethyl-5-[(morpholinocarbonyl)amino]pentyl[(4-methoxyphenyl)sulfonyl]amino-2-hydroxypropyl)carbamate and 3S,3aR,6aS)hexahydrofuro[2,3-b]furan-3-yl N-((1S,2R)-1-benzyl-3-2,2-dimethyl-5-[(morpholinocarbonyl)amino]pentyl[(4-methoxyphenyl)sulfonyl]amino-2-hydroxypropyl)carbamate] | < 1 nM | ≤ 100 nM | –
4 | COc1ccc(S(=O)(=O)N(CC(O)C(Cc2ccccc2)NC(=O)OC2COC3OCCC23)CC(C)(C)CCN(C)C)cc1 [Compound 238, (3R,3aS,6aR)hexahydrofuro[2,3-b]furan-3-yl N-((1S,2R)-1-benzyl-3-[4-(dimethylamino)-2,2-dimethylbutyl][(4-methoxyphenyl)sulfonyl]amino-2-hydroxypropyl)carbamate and (3S,3aR,6aS)hexahydrofuro[2,3-b]furan-3-yl N-((1S,2R)-1-benzyl-3-[4-(dimethylamino)-2,2-dimethylbutyl][(4-methoxyphenyl)sulfonyl]amino-2-hydroxypropyl)carbamate]] | < 1 nM | 100 to 500 nM | –
5 | CC(=O)CCC(C)(C)CN(CC(O)[C@H](Cc1ccccc1)NC(=O)OC1COC2OCCC12)S(=O)(=O)c1ccc2c(c1)OCO2 (stereo partly drawn) [Compound 240, (3R,3aS,6aR)-Hexahydrofuro[2,3-b]furan-3-yl N-((1S,2R)-1-benzyl-3-(2,2-dimethyl-5-oxohexyl)[(3,4-methylenedioxyphenyl)sulfonyl]amino-2-hydroxypropyl)carbamate] | < 1 nM | ≤ 100 nM | –
6 | CNc1cccc(S(=O)(=O)N(C[C@@H](O)[C@H](Cc2ccccc2)NC(=O)O[C@H]2CO[C@H]3OCC[C@H]32)CC(C)(C)CCCCN)c1 [Compound 241, (3R,3aS,6aR)hexahydrofuro[2,3-b]furan-3-yl N-[(1S,2R)-3-((6-amino-2,2-dimethylhexyl)[3-(methylamino)phenyl]sulfonylamino)-1-benzyl-2-hydroxypropyl]carbamate] | < 1 nM | 100 to 500 nM | –
7 | COc1ccc(S(=O)(=O)N(CC(O)C(Cc2ccccc2)NC(=O)OC2COC3OCCC23)CC(C)(C)CCNC(=O)OC(C)C)cc1 [Compound 242, (3R,3aS,6aR)hexahydrofuro[2,3-b]furan-3-yl N-((1S,2R)-1-benzyl-2-hydroxy-3-4-[(isopropoxycarbonyl)amino]-2,2-dimethylbutyl[(4-methoxyphenyl)sulfonyl]aminopropyl)carbamate and (3S,3aR,6aS)hexahydrofuro[2,3-b]furan-3-yl N-((1S,2R)-1-benzyl-2-hydroxy-3-4-[(isopropoxycarbonyl)amino]-2,2-dimethylbutyl[(4-methoxyphenyl)sulfonyl]aminopropyl)carbamate] | – | ≤ 100 nM | < 1 nM
8 | COc1ccc(S(=O)(=O)N(CC(O)C(Cc2ccccc2)NC(=O)OC2COC3OCCC23)CC(C)(C)CCCNC(=O)OC(C)C)cc1 [Compound 243, (3R,3aS,6aR)hexahydrofuro[2,3-b]furan-3-yl N-((1S,2R)-1-benzyl-2-hydroxy-3-5-[(isopropoxycarbonyl)amino]-2,2-dimethylpentyl[(4-methoxyphenyl)sulfonyl]aminopropyl)carbamate and (3S,3aR,6aS)hexahydrofuro[2,3-b]furan-3-yl N-((1S,2R)-1-benzyl-2-hydroxy-3-5-[(isopropoxycarbonyl)amino]-2,2-dimethylpentyl[(4-methoxyphenyl)sulfonyl]aminopropyl)carbamate] | – | ≤ 100 nM | < 1 nM
9 | CC(C)(CCCCN)CN(CC(O)C(Cc1ccccc1)NC(=O)OC1COC2OCCC12)S(=O)(=O)c1ccc2c(c1)OCO2 [Compound 244, (3R,3aS,6aR)hexahydrofuro[2,3-b]furan-3-yl N-(1S,2R)-3-[(6-amino-2,2-dimethylhexyl)(1,3-benzodioxol-5-ylsulfonyl)amino]-1-benzyl-2-hydroxypropylcarbamate] | < 1 nM | 100 to 500 nM | –
10 | CC(C)(CCCCN)CN(CC(O)C(Cc1ccccc1)NC(=O)OC1COC2OCCC12)S(=O)(=O)c1ccc2c(c1)OCCO2 [Compound 245, (3R,3aS,6aR)hexahydrofuro[2,3-b]furan-3-yl N-(1S,2R)-3-[(6-amino-2,2-dimethylhexyl)(2,3-dihydro-1,4-benzodioxin-6-ylsulfonyl)amino]-1-benzyl-2-hydroxypropylcarbamate] | < 1 nM | 100 to 500 nM | –
11 | CNc1cccc(S(=O)(=O)N(C[C@@H](O)[C@H](Cc2ccccc2)NC(=O)O[C@H]2CO[C@H]3OCC[C@H]32)CC(C)(C)CCCCNC(=O)OC)c1 [Compound 246, (3R,3aS,6aR)hexahydrofuro[2,3-b]furan-3-yl N-[(1S,2R)-1-benzyl-2-hydroxy-3-(6-[(methoxycarbonyl)amino]-2,2-dimethylhexyl[3-(methylamino)phenyl]sulfonylamino)propyl]carbamate] | < 1 nM | ≤ 100 nM | –
12 | CNc1cccc(S(=O)(=O)N(C[C@@H](O)[C@H](Cc2ccccc2)NC(=O)O[C@H]2CO[C@H]3OCC[C@H]32)CC(C)(C)CCCCNC(=O)N(C)C)c1 [Compound 247, (3R,3aS,6aR)hexahydrofuro[2,3-b]furan-3-yl N-[(1S,2R)-1-benzyl-3-((6-[(dimethylamino)carbonyl]amino-2,2-dimethylhexyl)[3-(methylamino)phenyl]sulfonylamino)-2-hydroxypropyl]carbamate] | < 1 nM | ≤ 100 nM | –
13 | COC(=O)NCCCCC(C)(C)CN(C[C@@H](O)[C@H](Cc1ccccc1)NC(=O)O[C@H]1CO[C@H]2OCC[C@H]21)S(=O)(=O)c1ccc2c(c1)OCO2 [Compound 248, (3R,3aS, 6aR)hexahydrofuro[2,3-b]furan-3-yl N-[(1S,2R)-3-((1,3-benzodioxol-5-ylsulfonyl)6-[(methoxycarbonyl)amino]-2,2-dimethylhexylamino)-1-benzyl-2-hydroxypropyl]carbamate] | < 1 nM | ≤ 100 nM | –
14 | CN(C)C(=O)NCCCCC(C)(C)CN(CC(O)C(Cc1ccccc1)NC(=O)OC1COC2OCCC12)S(=O)(=O)c1ccc2c(c1)OCO2 [Compound 249, (3R,3aS,6aR)hexahydrofuro[2,3-b]furan-3-yl N-(1S,2R)-3-[(1,3-benzodioxol-5-ylsulfonyl)(6-[(dimethylamino)carbonyl]amino-2,2-dimethylhexyl)amino]-1-benzyl-2-hydroxypropylcarbamate] | < 1 nM | ≤ 100 nM | –
15 | COC(=O)NCCCCC(C)(C)CN(C[C@@H](O)[C@H](Cc1ccccc1)NC(=O)O[C@H]1CO[C@H]2OCC[C@H]21)S(=O)(=O)c1ccc2c(c1)OCCO2 [Compound 250, (3R,3aS,6aR)hexahydrofuro[2,3-b]furan-3-yl N-[(1S,2R)-1-benzyl-3-((2,3-dihydro-1,4-benzodioxin-6-ylsulfonyl)6-[(methoxycarbonyl)amino]-2,2-dimethylhexylamino)-2-hydroxypropyl]carbamate] | < 1 nM | ≤ 100 nM | –
16 | CN(C)C(=O)NCCCCC(C)(C)CN(CC(O)C(Cc1ccccc1)NC(=O)OC1COC2OCCC12)S(=O)(=O)c1ccc2c(c1)OCCO2 [Compound 251, (3R,3aS,6aR)hexahydrofuro[2,3-b]furan-3-yl N-(1S,2R)-1-benzyl-3-[(2,3-dihydro-1,4-benzodioxin-6-ylsulfonyl)(6-[(dimethylamino)carbonyl]amino-2,2-dimethylhexyl)amino]-2-hydroxypropylcarbamate] | < 1 nM | ≤ 100 nM | –
17 | CC(=O)CCC(C)(C)CN(CC(O)[C@H](Cc1ccccc1)NC(=O)OC1COC2OCCC12)S(=O)(=O)c1ccc2c(c1)OCCO2 (stereo partly drawn) [Compound 252, (3R,3aS,6aR)-Hexahydrofuro[2,3-b]furan-3-yl N-((1S,2R)-3-(1,4-benzodioxan-6-sulfonyl)(2,2-dimethyl-5-oxohexyl)amino-1-benzyl-2-hydroxypropyl)carbamate] | < 1 nM | ≤ 100 nM | –
18 | CC(=O)CCC(C)(C)CN(CC(O)[C@H](Cc1ccccc1)NC(=O)OC1COC2OCCC12)S(=O)(=O)c1cccc(N)c1 (stereo partly shown) [Compound 253] | < 1 nM | ≤ 100 nM | –
19 | CC(=O)CCC(C)(C)CN(CC(O)[C@H](Cc1ccccc1)NC(=O)OC1COC2OCCC12)S(=O)(=O)c1cccc(N(C)C)c1 (stereo partly shown) [Compound 254] | < 1 nM | ≤ 100 nM | –
20 | CC(C)(CCCCNS(C)(=O)=O)CN(C[C@@H](O)[C@H](Cc1ccccc1)NC(=O)O[C@H]1CO[C@H]2OCC[C@H]21)S(=O)(=O)c1ccc2c(c1)OCO2 [Compound 255, (3R,3aS,6aR)hexahydrofuro[2,3-b]furan-3-yl N-[(1S,2R)-3-((1,3-benzodioxol-5-ylsulfonyl)2,2-dimethyl-6-[(methylsulfonyl)amino]hexylamino)-1-benzyl-2-hydroxypropyl]carbamate] | < 1 nM | ≤ 100 nM | –
